Columns and labels:
[1] = biological target: T1, Fatty-acid amide hydrolase 1 (Homo sapiens, UniProt O00519); test: Inhibition of human FAAH expressed in HEK293 cells using arachadonyl 7-amino 4-methyl coumarin amide as substrate by fluorimetric assay; assay type: cell-based
T1 sequence (O00519 whole entry): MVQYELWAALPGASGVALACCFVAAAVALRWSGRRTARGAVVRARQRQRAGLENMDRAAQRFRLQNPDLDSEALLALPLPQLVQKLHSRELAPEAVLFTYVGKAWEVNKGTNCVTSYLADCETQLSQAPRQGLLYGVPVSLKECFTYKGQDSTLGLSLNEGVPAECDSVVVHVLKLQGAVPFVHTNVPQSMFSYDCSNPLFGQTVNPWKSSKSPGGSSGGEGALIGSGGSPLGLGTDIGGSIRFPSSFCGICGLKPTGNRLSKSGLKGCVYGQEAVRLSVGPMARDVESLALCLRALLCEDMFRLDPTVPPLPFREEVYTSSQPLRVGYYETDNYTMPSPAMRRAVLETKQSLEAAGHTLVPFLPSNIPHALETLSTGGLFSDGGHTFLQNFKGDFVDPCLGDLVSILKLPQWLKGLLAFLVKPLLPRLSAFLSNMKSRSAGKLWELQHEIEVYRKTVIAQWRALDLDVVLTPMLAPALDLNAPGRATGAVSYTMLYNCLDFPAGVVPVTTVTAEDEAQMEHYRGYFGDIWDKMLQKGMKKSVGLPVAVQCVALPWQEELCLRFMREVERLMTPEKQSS

[2] = biological target: T2, Fatty-acid amide hydrolase 1 (Rattus norvegicus, UniProt P97612); test: Inhibition of rat FAAH expressed in HEK293 cells using arachadonyl 7-amino 4-methyl coumarin amide as substrate by fluorimetric assay; assay type: cell-based
T2 sequence (P97612 whole entry): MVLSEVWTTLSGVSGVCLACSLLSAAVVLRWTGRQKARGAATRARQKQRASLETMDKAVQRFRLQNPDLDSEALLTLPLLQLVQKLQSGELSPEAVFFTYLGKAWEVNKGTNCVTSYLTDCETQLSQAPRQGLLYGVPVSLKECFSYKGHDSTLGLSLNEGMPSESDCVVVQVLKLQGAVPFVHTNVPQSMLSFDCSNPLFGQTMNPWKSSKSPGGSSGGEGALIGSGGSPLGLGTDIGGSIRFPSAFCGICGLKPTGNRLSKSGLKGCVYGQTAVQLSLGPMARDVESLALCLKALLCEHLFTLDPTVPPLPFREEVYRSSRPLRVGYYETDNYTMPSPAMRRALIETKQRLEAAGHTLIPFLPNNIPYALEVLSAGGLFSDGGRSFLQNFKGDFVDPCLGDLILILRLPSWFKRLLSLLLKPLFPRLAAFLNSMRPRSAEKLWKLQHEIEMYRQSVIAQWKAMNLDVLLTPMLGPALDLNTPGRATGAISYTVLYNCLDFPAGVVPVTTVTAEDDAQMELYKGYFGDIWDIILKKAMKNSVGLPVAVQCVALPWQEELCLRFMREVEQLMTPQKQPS

[3] = biological target: T1, Fatty-acid amide hydrolase 1; test: Reversible inhibition of full length human FAAH assessed as inhibition of 3[H]-anandamide hydrolysis preincubated for 3 hrs measured after 15 mins post substrate addition by cell-based assay
[4] = Inhibition of guinea pig brain FAAH; design: species or system Cavia porcellus
[5] = Inhibition of rabbit brain FAAH; design: species or system Oryctolagus cuniculus

Row | IC50 [1] [nM] | Structure (SMILES) | also measured
1 | 211 | Cn1ccc2cc(-c3ccc4oc(N5Cc6cccnc6C5)nc4c3)ccc21 | –
2 | 121 | Cn1ccc2cc(-c3ccc4oc(N5Cc6ccncc6C5)nc4c3)ccc21 | –
3 | 42 | Cn1ccc2cc(-c3ccc4oc(N5CCn6cccc6C5)nc4c3)ccc21 | –
4 | > 1000 | Cn1ccc2cc(-c3ccc4nc(N5Cc6ccccc6C5)oc4c3)ccc21 | –
5 | 911 | Cn1ccc2cc(-c3ccc4oc(NC5CCCCC5)nc4c3)ccc21 | –
6 | 99 | Cn1ccc2cc(-c3ccc4oc(Nc5ccc(F)cc5)nc4c3)ccc21 | –
7 | > 1000 | Cn1ccc2cc(-c3ccc4oc(Nc5ccncc5)nc4c3)ccc21 | –
8 | > 1000 | CNc1nc2cc(-c3ccc4c(ccn4C)c3)ccc2o1 | –
9 | 674 | Cn1ccc2cc(-c3ccc4oc(N5CCCC5)nc4c3)ccc21 | –
10 | 784 | Cn1ccc2cc(-c3ccc4oc(N5CCOCC5)nc4c3)ccc21 | –
11 | 168 | C[C@@H]1CN(c2nc3cc(-c4ccc5c(ccn5C)c4)ccc3o2)C[C@H](C)O1 | –
12 | > 1000 | Cn1ccc2cc(-c3ccc4oc(N5CCNCC5)nc4c3)ccc21 | –
13 | 63 | Cn1ccc2cc(-c3ccc4oc(N5CCN(c6ccccc6)CC5)nc4c3)ccc21 | –
14 | 55 | Cn1ccc2cc(-c3ccc4oc(N5CCc6ccccc6C5)nc4c3)ccc21 | –
15 | 12 | Cn1ccc2cc(-c3ccc4oc(N5Cc6ccccc6C5)nc4c3)ccc21 | IC50 [2]: 413 nM; IC50 [3]: 95 nM; IC50 [4]: 423 nM; IC50 [5]: 42 nM

Second part, the compound before the results:

Row | Structure (SMILES) | IC50 [1] [nM] | also measured
16 | Cn1ccc2cc(-c3ccc4oc(Nc5cccnc5)nc4c3)ccc21 | 226 | –
17 | COc1cccc(-c2ccc3oc(N4Cc5ccccc5C4)nc3c2)c1 | 28 | –
18 | COCc1ccc(-c2ccc3oc(N4Cc5ccccc5C4)nc3c2)cc1 | 10 | –
19 | COCc1ccc(-c2ccc3oc(N4Cc5ccccc5C4)nc3c2)cc1OC | 13 | –
20 | COc1cc(-c2ccc3oc(N4Cc5ccccc5C4)nc3c2)ccn1 | 10 | –
21 | c1ccc2c(c1)CN(c1nc3cc(-c4ccc5nccn5c4)ccc3o1)C2 | 14 | –
22 | Cn1ncc2cc(-c3ccc4oc(N5Cc6ccccc6C5)nc4c3)ccc21 | 1.2 | –
23 | Cn1ncc2c(-c3ccc4oc(N5Cc6ccccc6C5)nc4c3)cccc21 | 3.2 | –
24 | CCn1ccc2cc(-c3ccc4oc(Nc5ccccc5)nc4c3)ccc21 | 18 | IC50 [2]: 586 nM; IC50 [3]: 92 nM; IC50 [4]: 424 nM; IC50 [5]: 98 nM
25 | Cn1ccc2cc(-c3cccc4nc(N5Cc6ccccc6C5)oc34)ccc21 | > 1000 | –
26 | NC(=O)c1cccc(-c2ccc3oc(NC4CCCCC4)nc3c2)c1 | > 1000 | –
27 | c1ccc(-c2ccc3oc(NC4CCCCC4)nc3c2)cc1 | > 1000 | –
28 | COc1ccc(-c2ccc3oc(NC4CCCCC4)nc3c2)cc1C | 228 | –
29 | N#Cc1cc(-c2ccc3oc(NC4CCCCC4)nc3c2)ccc1O | 54 | –
30 | c1cc2cc(-c3ccc4oc(NC5CCCCC5)nc4c3)cnc2[nH]1 | > 1000 | –
31 | c1cnc2ccc(-c3ccc4oc(NC5CCCCC5)nc4c3)cc2c1 | > 1000 | –
32 | CCn1ccc2cc(-c3ccc4oc(NC5CCCCC5)nc4c3)ccc21 | 207 | –
33 | c1cc2c(ccn2C2COC2)cc1-c1ccc2oc(NC3CCCCC3)nc2c1 | 579 | –
34 | NC(=O)Cn1ccc2cc(-c3ccc4oc(NC5CCCCC5)nc4c3)ccc21 | 214 | –
35 | Cn1ncc2cc(-c3ccc4oc(NC5CCCCC5)nc4c3)ccc21 | 61 | –
36 | Cn1ncc2c(-c3ccc4oc(NC5CCCCC5)nc4c3)cccc21 | 52 | –
37 | Cn1ccc2cc(-c3ccc4oc(Nc5ccccc5)nc4c3)ccc21 | 48 | –
38 | Cn1ccc2cc(-c3ccc4oc(Cc5ccccc5)nc4c3)ccc21 | 488 | –
39 | CN(c1ccccc1)c1nc2cc(-c3ccc4c(ccn4C)c3)ccc2o1 | 68 | –
40 | COc1ccc(Nc2nc3cc(-c4ccc5c(ccn5C)c4)ccc3o2)cc1 | 280 | –
41 | Cn1ccc2cc(-c3ccc4oc(Nc5ccccn5)nc4c3)ccc21 | 186 | –
42 | CCCCCCCC/C=C\CCCCCCCC(=O)C(F)(F)F | – | IC50 [3]: 187 nM
43 | O=C(Nc1ccccc1)N1CCC(Cc2cnc3ccccc3c2)CC1 | – | IC50 [2]: 17 nM; IC50 [4]: 66 nM; IC50 [5]: 0.8 nM
44 | NC(=O)c1cccc(-c2cccc(OC(=O)NC3CCCCC3)c2)c1 [URB-597] | – | IC50 [4]: 26 nM; IC50 [5]: 0.8 nM

Source: ChEMBL document CHEMBL3217481, “2-Amino-5-arylbenzoxazole derivatives as potent inhibitors of fatty acid amide hydrolase (FAAH)” (Medchemcomm, 2012)
